Results from ChEMBL document CHEMBL4270557, “Discovery of potent anti-convulsant carbonic anhydrase inhibitors: Design, synthesis, in vitro and in vivo appraisal” (Eur J Med Chem, 2018).

Assays:
[1] = system: Rattus norvegicus; experiment: Sub-acute toxicity in Wistar rat assessed as blood urea level at 100 mg/kg, po administered daily for 14 days (reference value: 40.7 +/- 3.3 mg/dl); format: organism-based; details: in vivo, 336 h
[2] = system: Rattus norvegicus; experiment: Sub-acute toxicity in Wistar rat assessed as alkaline phosphatase level at 100 mg/kg, po administered daily for 14 days (reference value: 113.2 +/- 15.1 U/L); format: organism-based; details: in vivo, 336 h
[3] = system: Mus musculus; experiment: Anticonvulsant activity in Swiss albino mouse assessed as protection against subcutaneous PTZ-induced seizures at 30 mg/kg, ip administered 0.5 hrs prior to PTZ-induction relative to control; format: functional
[4] = system: Rattus norvegicus; experiment: Sub-acute toxicity in Wistar rat assessed as calcium level at 100 mg/kg, po administered daily for 14 days (reference value: 10.5 +/- 1.5 mg/dl); format: organism-based; details: in vivo, 336 h
[5] = system: Mus musculus; experiment: Anticonvulsant activity in Swiss albino mouse assessed as protection against maximal electroshock-induced seizures at 30 mg/kg, ip administered 4 hrs prior to 50 mA current induction relative to control; format: functional
[6] = system: Rattus norvegicus; experiment: Sub-acute toxicity in Wistar rat assessed as lymphocytes level at 100 mg/kg, po administered daily for 14 days (reference value: 72.3 +/- 6.7%); format: organism-based; details: in vivo, 336 h
[7] = system: Rattus norvegicus; experiment: Anticonvulsant activity in Wistar rat assessed as protection against maximal electroshock-induced seizures at 30 mg/kg, po administered 0.5 hrs prior to 150 mA current induction relative to control; format: functional
[8] = system: Rattus norvegicus; experiment: Sub-acute toxicity in Wistar rat assessed as platelet level at 100 mg/kg, po administered daily for 14 days (reference value: 760.8 +/- 179.9 10^3/mm3); format: organism-based; details: in vivo, 336 h
[9] = system: Mus musculus; experiment: Anticonvulsant activity in Swiss albino mouse assessed as protection against maximal electroshock-induced seizures at 100 mg/kg, ip administered 3 hrs prior to 50 mA current induction relative to control
[10] = system: Rattus norvegicus; experiment: Sub-acute toxicity in Wistar rat assessed as mortality at 100 mg/kg, po administered daily for 14 days; format: organism-based; details: in vivo, 336 h
[11] = system: Rattus norvegicus; experiment: Anticonvulsant activity in Wistar rat assessed as protection against maximal electroshock-induced seizures at 30 mg/kg, po administered 2 hrs prior to 150 mA current induction relative to control; format: functional
[12] = system: Rattus norvegicus; experiment: Sub-acute toxicity in Wistar rat assessed as change in behavior at 100 mg/kg, po administered daily for 14 days; format: organism-based; details: in vivo, 336 h
[13] = system: Mus musculus; experiment: Anticonvulsant activity in Swiss albino mouse assessed as protection against maximal electroshock-induced seizures at 30 mg/kg, ip administered 0.5 hrs prior to 50 mA current induction relative to control; format: functional
[14] = target: Carbonic anhydrase 1 (Homo sapiens, UniProt P00915); experiment: Inhibition of human recombinant carbonic anhydrase 1 assessed as CO2 hydration preincubated for 15 mins prior to testing measured for 10 to 100 secs by phenol red dye-based stopped-flow assay
[15] = system: Rattus norvegicus; experiment: Sub-acute toxicity in Wistar rat assessed as total bilirubin level at 100 mg/kg, po administered daily for 14 days (reference value: 0.37 +/- 0.11 mg/dl); format: organism-based; details: in vivo, 336 h
[16] = system: Rattus norvegicus; experiment: Anticonvulsant activity in Wistar rat assessed as protection against maximal electroshock-induced seizures at 30 mg/kg, po administered 1 hr prior to 150 mA current induction relative to control; format: functional

Carbonic anhydrase 1, sequence (P00915 whole entry): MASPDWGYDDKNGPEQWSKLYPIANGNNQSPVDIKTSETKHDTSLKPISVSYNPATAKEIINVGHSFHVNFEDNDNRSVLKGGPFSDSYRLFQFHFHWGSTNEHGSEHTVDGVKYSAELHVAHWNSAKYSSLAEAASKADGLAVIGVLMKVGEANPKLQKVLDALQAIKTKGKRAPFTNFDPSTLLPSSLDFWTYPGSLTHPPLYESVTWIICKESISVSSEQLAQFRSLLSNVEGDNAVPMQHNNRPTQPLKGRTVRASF

Cc1ccc(N2CCN(c3ccc(/C=N/NC(=O)c4ccc(S(N)(=O)=O)cc4)cc3)CC2)c(C)c1
Activity [1]: 39.6 mg/dL
Activity [2]: 96.5 U/L
Activity [3]: 50%
Activity [4]: 10 mg/dL
Activity [5]: 50%
Activity [6]: 71.5%
Activity [7]: 67 - 84%
Activity [8]: 622.3 ×10³ /mm3
Activity [9]: 50%
Activity [10]: Non-Toxic
Activity [11]: 67%
Activity [12]: Non-Toxic
Activity [13]: 67 - 70%
Ki [14]: > 10 µM
Activity [15]: 0.35 mg/dL
Activity [16]: 84%
